Results taken from PubChem BioAssay AID330 (DTP/NCI, 2004).
Several values for one entry are separate records, joined by “and”; a condition that tells them apart may be missing. Identical values can stand only once. Inconclusive results and toxic doses are left out. The calls were made as follows: active = survival T/C of 150% or more; inactive = T/C below 125% in these data.

Tested on: P388 leukemia ip, CD2F1 mice, survival T/C
Test: NCI In Vivo Anticancer Drug Screen. Data for tumor model P388 Leukemia (intraperitoneal) in CD2F1 (CDF1) mice
Conditions: endpoint: median survival time, higher = longer survival
Procedure, shortened: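 Mice carrying the transplanted tumor received test compound or vehicle. Survival was recorded in each group, and the value is the treated-group measurement divided by that of the vehicle-treated control group.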

[1] = dose: 50.0 mg/kg/injection, schedule: Q01DX005 (ip), vehicle: saline with Tween-80
[2] = dose: 100.0 mg/kg/injection, schedule: Q01DX005 (ip), vehicle: saline with Tween-80
[3] = dose: 60.0 mg/kg/injection, schedule: Q01DX005 (ip), vehicle: Klucel (hydroxypropylcellulose) (HPC)
[4] = dose: 120.0 mg/kg/injection, schedule: Q01DX005 (ip), vehicle: Klucel (hydroxypropylcellulose) (HPC)
[5] = dose: 240.0 mg/kg/injection, schedule: Q01DX005 (ip), vehicle: Klucel (hydroxypropylcellulose) (HPC)
[6] = dose: 50.0 mg/kg/injection, schedule: Q01DX005 (ip), vehicle: Klucel (hydroxypropylcellulose) (HPC)
[7] = dose: 100.0 mg/kg/injection, schedule: Q01DX005 (ip), vehicle: Klucel (hydroxypropylcellulose) (HPC)
[8] = dose: 200.0 mg/kg/injection, schedule: Q01DX005 (ip), vehicle: Klucel (hydroxypropylcellulose) (HPC)
[9] = dose: 50.0 mg/kg/injection, schedule: Q04DX003 (ip), vehicle: saline with Tween-80
[10] = dose: 100.0 mg/kg/injection, schedule: Q04DX003 (ip), vehicle: saline with Tween-80
[11] = dose: 200.0 mg/kg/injection, schedule: Q04DX003 (ip), vehicle: saline with Tween-80

Measured: T/C

COc1ccc(Cc2cc(O)c(OC)cc2O)cc1
inactive: dose: 0.32 mg/kg/injection, schedule: Q01DX009 (ip), vehicle: saline with Tween-80 104 % of control | dose: 0.63 mg/kg/injection, schedule: Q01DX009 (ip), vehicle: saline with Tween-80 107 % of control | dose: 1.25 mg/kg/injection, schedule: Q01DX009 (ip), vehicle: saline with Tween-80 104 % of control | dose: 2.5 mg/kg/injection, schedule: Q01DX009 (ip), vehicle: saline with Tween-80 111 % of control | dose: 5.0 mg/kg/injection, schedule: Q01DX009 (ip), vehicle: saline with Tween-80 100 % of control and 108 % of control | dose: 10.0 mg/kg/injection, schedule: Q01DX009 (ip), vehicle: saline with Tween-80 106 % of control

ON(C(=S)Nc1ccc(Cl)cc1)c1ccccc1
inactive: dose: 12.5 mg/kg/injection, schedule: Q01DX005 (ip), vehicle: saline with Tween-80 104 % of control | dose: 25.0 mg/kg/injection, schedule: Q01DX005 (ip), vehicle: saline with Tween-80 100 % of control | [1] 95 % of control and 98 % of control | [2] 94 % of control | dose: 200.0 mg/kg/injection, schedule: Q01DX005 (ip), vehicle: saline with Tween-80 97 % of control

CC(C)N=Cc1ccccc1O.CC(C)N=Cc1ccccc1O.[Co]
inactive: dose: 12.5 mg/kg/injection, schedule: Q04DX003 (ip), vehicle: saline sonified 110 % of control | dose: 25.0 mg/kg/injection, schedule: Q04DX003 (ip), vehicle: saline sonified 100 % of control | dose: 50.0 mg/kg/injection, schedule: Q04DX003 (ip), vehicle: saline sonified 105 % of control

CCNC(=O)OCc1c(Cl)nc2sccn12
inactive: dose: 100.0 mg/kg/injection, schedule: Q01DX001 (ip), vehicle: Klucel (hydroxypropylcellulose) (HPC) 106 % of control | dose: 200.0 mg/kg/injection, schedule: Q01DX001 (ip), vehicle: Klucel (hydroxypropylcellulose) (HPC) 107 % of control | dose: 400.0 mg/kg/injection, schedule: Q01DX001 (ip), vehicle: Klucel (hydroxypropylcellulose) (HPC) 100 % of control

CC(/C=C/c1cccc(C)c1)=N\NC(N)=O
inactive: [3] 107 % of control | [4] 104 % of control | [5] 115 % of control

Cc1cc(O)c2c(c1)C(=O)C13C(=C2O)C(=O)C2C(O)C1C1C(O)C3C(=O)C3=C(O)c4c(O)cc(C)cc4C(=O)C321 (stereo not drawn)
inactive: dose: 3.12 mg/kg/injection, schedule: Q01DX005 (ip), vehicle: Klucel (hydroxypropylcellulose) (HPC) 110 % of control | dose: 6.25 mg/kg/injection, schedule: Q01DX005 (ip), vehicle: Klucel (hydroxypropylcellulose) (HPC) 100 % of control

CCN(CC)CCOC(=O)c1ccc(N)c2ccccc12
inactive: [1] 103 % of control | [2] 100 % of control

O=C(O)/C=C(/C(=O)O)C12CCN3CC4=CCOC5CC(=O)NC1C5C4CC32 (stereo not drawn)
inactive: [3] 97 % of control | [4] 106 % of control | [5] 110 % of control

O=C(Nc1ccccc1)NC1CCCCCC1
inactive: dose: 50.0 mg/kg/injection, schedule: Q01DX009 (ip), vehicle: saline 93 % of control | dose: 100.0 mg/kg/injection, schedule: Q01DX009 (ip), vehicle: saline 98 % of control | dose: 200.0 mg/kg/injection, schedule: Q01DX009 (ip), vehicle: saline 87 % of control

CC(=N\N)/C(C)=N/N
inactive: dose: 25.0 mg/kg/injection, schedule: Q01DX009 (ip), vehicle: saline with Tween-80 100 % of control | dose: 50.0 mg/kg/injection, schedule: Q01DX009 (ip), vehicle: saline with Tween-80 121 % of control

COC(=O)c1c(SC)c2sc3ccccc3c2oc1=O
inactive: dose: 6.25 mg/kg/injection, schedule: Q04DX002 (ip), vehicle: saline with Tween-80 100 % of control | dose: 12.5 mg/kg/injection, schedule: Q04DX002 (ip), vehicle: saline with Tween-80 106 % of control | dose: 25.0 mg/kg/injection, schedule: Q04DX002 (ip), vehicle: saline with Tween-80 99 % of control

Oc1cc2c(cc1C(c1ccc(Cl)cc1)N1CCCCC1)OCO2 (stereo not drawn)
inactive: dose: 60.0 mg/kg/injection, schedule: Q01DX005 (ip), vehicle: saline with Tween-80 117 % of control | dose: 120.0 mg/kg/injection, schedule: Q01DX005 (ip), vehicle: saline with Tween-80 118 % of control | dose: 240.0 mg/kg/injection, schedule: Q01DX005 (ip), vehicle: saline with Tween-80 119 % of control

CC1=NNB(O)c2c1sc(Br)c2Br
inactive: dose: 100.0 mg/kg/injection, schedule: Q01DX001 (ip), vehicle: saline with Tween-80 100 % of control | dose: 200.0 mg/kg/injection, schedule: Q01DX001 (ip), vehicle: saline with Tween-80 95 % of control

Cc1nc2nc3n(c(=O)c2nc1C)CCS3
inactive: dose: 100.0 mg/kg/injection, schedule: Q01DX001 (ip), vehicle: saline 103 % of control | dose: 200.0 mg/kg/injection, schedule: Q01DX001 (ip), vehicle: saline 108 % of control | dose: 400.0 mg/kg/injection, schedule: Q01DX001 (ip), vehicle: saline 102 % of control

O=C(c1ccccc1Cl)n1c(=O)oc2ccccc21
inactive: dose: 50.0 mg/kg/injection, schedule: Q04DX002 (ip), vehicle: Klucel (hydroxypropylcellulose) (HPC) 99 % of control | dose: 100.0 mg/kg/injection, schedule: Q04DX002 (ip), vehicle: Klucel (hydroxypropylcellulose) (HPC) 90 % of control | dose: 200.0 mg/kg/injection, schedule: Q04DX002 (ip), vehicle: Klucel (hydroxypropylcellulose) (HPC) 90 % of control

N#CCCSC(=S)C(C#N)C(=N)c1ccccc1 (stereo not drawn)
inactive: dose: 25.0 mg/kg/injection, schedule: Q04DX003 (ip), vehicle: Klucel (hydroxypropylcellulose) (HPC) 108 % of control | dose: 50.0 mg/kg/injection, schedule: Q04DX003 (ip), vehicle: Klucel (hydroxypropylcellulose) (HPC) 110 % of control | dose: 100.0 mg/kg/injection, schedule: Q04DX003 (ip), vehicle: Klucel (hydroxypropylcellulose) (HPC) 104 % of control and 92 % of control | dose: 200.0 mg/kg/injection, schedule: Q04DX003 (ip), vehicle: Klucel (hydroxypropylcellulose) (HPC) 92 % of control | dose: 400.0 mg/kg/injection, schedule: Q04DX003 (ip), vehicle: Klucel (hydroxypropylcellulose) (HPC) 96 % of control

N#Cc1c(C(F)(F)F)cc(-c2cccs2)nc1C(C(=O)Nc1cc(Cl)c(Cl)cc1Cl)c1ccccc1 (stereo not drawn)
inactive: [6] 87 % of control | [7] 92 % of control | [8] 91 % of control

COc1ccc2c(c1OC)C(O)(Cc1ccccc1)OC2C1c2c(cc3c(c2OC)OCO3)CCN1C (stereo not drawn)
inactive: [6] 106 % of control | [7] 104 % of control | [8] 95 % of control

CC(=O)c1ccc2c3c(cc(C)c2c1)CCCC3
inactive: [6] 103 % of control | [7] 99 % of control | [8] 89 % of control

O=C(Nc1ccc(Cl)cc1C(=O)c1ccccn1)c1ccccc1
inactive: dose: 12.5 mg/kg/injection, schedule: Q04DX003 (ip), vehicle: saline with Tween-80 107 % of control | dose: 25.0 mg/kg/injection, schedule: Q04DX003 (ip), vehicle: saline with Tween-80 93 % of control | [9] 108 % of control | [10] 94 % of control | [11] 97 % of control

CC1C(O)CCC2=CC(=O)C3(C4(CO)CO4)OC3C21C (stereo not drawn)
inactive: dose: 15.0 mg/kg/injection, schedule: Q01DX005 (ip), vehicle: saline 102 % of control | dose: 30.0 mg/kg/injection, schedule: Q01DX005 (ip), vehicle: saline 91 % of control | dose: 60.0 mg/kg/injection, schedule: Q01DX005 (ip), vehicle: saline 108 % of control | dose: 62.5 mg/kg/injection, schedule: Q01DX005 (ip), vehicle: saline 103 % of control | dose: 120.0 mg/kg/injection, schedule: Q01DX005 (ip), vehicle: saline 98 % of control | dose: 125.0 mg/kg/injection, schedule: Q01DX005 (ip), vehicle: saline 110 % of control | dose: 250.0 mg/kg/injection, schedule: Q01DX005 (ip), vehicle: saline 114 % of control

CC1(C)SC(C(NC(=O)COc2ccccc2)C(=O)O)NC1C(=O)O (stereo not drawn)
inactive: [9] 90 % of control | [10] 95 % of control | [11] 95 % of control

CCC[CH2][Sn]([F])([F])[CH2]CCC
inactive: dose: 6.25 mg/kg/injection, schedule: Q04DX003 (ip), vehicle: saline 107 % of control | dose: 12.5 mg/kg/injection, schedule: Q04DX003 (ip), vehicle: saline 114 % of control | dose: 25.0 mg/kg/injection, schedule: Q04DX003 (ip), vehicle: saline 118 % of control
